# Source: US6525059B1, “Substituted pyrazoles as p38 kinase inhibitors” (G. D. Searle & Company, priority 1998, dated 2003)
# Biological target: T1, human p38 kinase alpha (Homo sapiens, UniProt Q16539)
# T1 construct: The coding region of the human p38a cDNA was obtained by PCR-amplification from RNA isolated from the human monocyte cell line THP.1; GST (N); made in house; host or cells: E. coli DH10B
# Experiment: p38 kinase in vitro assay, phosphorylation of biotinylated PHAS-I with gamma 32P-ATP
# Format: biochemical
# Conditions: activated human p38 kinase alpha, PHAS-I substrate, 50 μM unlabeled ATP; read-out: p38 kinase IC50
# Protocol: The ability of compounds to inhibit human p38 kinase alpha was evaluated using two in vitro assay methods. In the first method activated human p38 kinase alpha phosphorylates a biotinylated substrate, PHAS-I (phosphorylated heat and acid stable protein-insulin inducible), in the presence of gamma ^32P-ATP (^32P-ATP). PHAS-I was biotinylated prior to the assay and provides a means of capturing the substrate which is phosphorylated during the assay. p38 Kinase was activated by MKK6. Compounds were tested in 10 fold serial dilutions over the range of 100 μM to 0.001 μM using 1% DMSO. Each concentration of inhibitor was tested in triplicate.
# All reactions were carried out in 96 well polypropylene plates. Each reaction well contained 25 mM HEPES pH 7.5, 10 mM magnesium acetate and 50 μM unlabeled ATP. […] The reaction proceeded either for one hour or overnight at 30° C.
# Following incubation, 20 μl of reaction mixture was transferred to a high capacity streptavidin coated filter plate (SAM-streptavidin-matrix, Promega) prewetted with phosphate buffered saline. […] Filter plates were air dried and 20 μl of scintillant was added. The plates were sealed and counted.
# T1 sequence (Q16539 whole entry): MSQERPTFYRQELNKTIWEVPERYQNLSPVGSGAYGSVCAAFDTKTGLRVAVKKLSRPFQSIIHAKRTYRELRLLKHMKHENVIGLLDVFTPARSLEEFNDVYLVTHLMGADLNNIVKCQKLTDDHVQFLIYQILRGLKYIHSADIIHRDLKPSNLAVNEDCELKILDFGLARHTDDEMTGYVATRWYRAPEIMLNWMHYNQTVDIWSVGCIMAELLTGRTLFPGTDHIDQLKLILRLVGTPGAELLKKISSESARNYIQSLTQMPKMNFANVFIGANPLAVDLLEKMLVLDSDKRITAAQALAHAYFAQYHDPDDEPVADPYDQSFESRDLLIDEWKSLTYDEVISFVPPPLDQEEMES
row,IC50 [nM],Structure (SMILES)
1,< 100,"Cc1cccc(-c2n[nH]cc2-c2ccnc(C)c2)c1 [Example A-143, 2-methyl-4-[3-(3-methylphenyl)-1H-pyrazol-4-yl]pyridine]"

# Same assay, conditions: p38α in vitro, PHAS-I assay procedure; read-out: p38^1 IC50
row,IC50 [nM],Structure (SMILES)
1,< 100,"CN(C)CCn1cc(-c2ccnc(NCc3ccc(F)cc3)c2)c(-c2ccc(F)cc2)n1 [Example A-274, 4-[1-[2-(dimethylamino)ethyl]-3-(4-fluorophenyl)-1H-pyrazol-4-yl]-N-[(4-fluorophenyl)methyl]-2-pyridinamine]"
2,10100,"CN(C)CCn1cc(-c2ccnc(CCc3ccc(F)cc3)c2)c(-c2ccc(F)cc2)n1 [Example A-275, 3-(4-fluorophenyl)-4-[2-[2-(4-fluorophenyl)ethyl]-4-pyridinyl]-N,N-dimethyl-1H-pyrazole-1-ethanamine]"

# Same assay, conditions: read-out: P38 alpha kinase IC50
row,IC50 [nM],Structure (SMILES)
1,420,Cc1cccc(C(=O)N[C@H](C)c2[nH]nc(-c3ccc(F)cc3)c2-c2ccncc2)c1 [Example B-0515]
2,370,C[C@@H](NC(=O)c1ccc(Cl)cc1Cl)c1[nH]nc(-c2ccc(F)cc2)c1-c1ccncc1 [Example B-0516]
3,160,C[C@@H](NC(=O)c1cccc(Cl)c1)c1[nH]nc(-c2ccc(F)cc2)c1-c1ccncc1 [Example B-0525]
4,460,CC(=O)NC(C)c1[nH]nc(-c2ccc(F)cc2)c1-c1ccncc1 (stereo not drawn) [Example B-0536]
5,1080,Cc1ccc(C(=O)NC(C)c2[nH]nc(-c3ccc(F)cc3)c2-c2ccncc2)cc1 (stereo not drawn) [Example B-0551]
6,1370,COc1cccc(C(=O)NC(C)c2[nH]nc(-c3ccc(F)cc3)c2-c2ccncc2)c1 (stereo not drawn) [Example B-0557]
7,250,CC(NS(=O)(=O)c1ccccc1C#N)c1[nH]nc(-c2ccc(F)cc2)c1-c1ccncc1 (stereo not drawn) [Example B-0627]
8,1250,COc1ccc(Cl)cc1S(=O)(=O)NC(C)c1[nH]nc(-c2ccc(F)cc2)c1-c1ccncc1 (stereo not drawn) [Example B-0655]
9,1140,CC(NS(=O)(=O)c1ccc(-c2ccccc2)cc1)c1[nH]nc(-c2ccc(F)cc2)c1-c1ccncc1 (stereo not drawn) [Example B-0658]
10,6590,CC(NC(=O)c1cccc(C(F)(F)F)c1)c1[nH]nc(-c2ccc(F)cc2)c1-c1ccncc1 (stereo not drawn) [Example B-0672]
11,62,CC(NC(=O)c1cc(F)cc(F)c1)c1[nH]nc(-c2ccc(F)cc2)c1-c1ccncc1 (stereo not drawn) [Example B-0679]
12,660,CC(NC(=O)c1ccc(F)cc1C(F)(F)F)c1[nH]nc(-c2ccc(F)cc2)c1-c1ccncc1 (stereo not drawn) [Example B-0688]
13,3200,CCCS(=O)(=O)NC(Cc1ccccc1)c1[nH]nc(-c2ccc(F)cc2)c1-c1ccncc1 (stereo not drawn) [Example B-0715]
14,4300,CCS(=O)(=O)NC(Cc1ccccc1)c1[nH]nc(-c2ccc(F)cc2)c1-c1ccncc1 (stereo not drawn) [Example B-0717]
15,60,NC(=O)NC(Cc1ccccc1)c1[nH]nc(-c2ccc(F)cc2)c1-c1ccncc1 (stereo not drawn) [Example B-0724]
16,15,CS(=O)(=O)NC(Cc1ccccc1)c1[nH]nc(-c2ccc(F)cc2)c1-c1ccncc1 (stereo not drawn) [Example B-0763]
17,12700,NC(=O)NC(Cc1ccccc1)c1[nH]nc(-c2ccc(F)cc2)c1-c1ccncc1 (stereo not drawn) [Example B-0769]
18,700,O=C(NCCCc1[nH]nc(-c2ccc(F)cc2)c1-c1ccncc1)c1ccccc1Br [Example B-1355]
19,550,N#Cc1cccc(C(=O)N2CCC(c3[nH]nc(-c4ccc(F)cc4)c3-c3ccncc3)CC2)c1 [Example B-1396]
20,920,O=C(c1ccccc1Br)N1CCC(c2[nH]nc(-c3ccc(F)cc3)c2-c2ccncc2)CC1 [Example B-1398]
21,6000,"O=C(O)CCc1[nH]nc(-c2ccc(F)cc2)c1-c1ccncc1 [Example C-135, 4-(4-(4-PYRIDYL)-3-(4-FLUOROPHENYL)PYRAZOLYL)PROPIONIC ACID]"

row,Structure (SMILES),IC50 [nM]
1,Clc1ccc(-c2n[nH]c(C3CCNCC3)c2-c2ccncn2)cc1 [Example C-136],32

# Test system: TNF-α
# Experiment: LPS stimulation of TNF production by U937 cells
# Format: cell-based, human
# Conditions: @ 1.0 uM
# Protocol: Fifty million cells in 100 ml media were induced to terminal monocytic differentiation by 24 hour incubation with 20 ng/ml phorbol 12-myristate 13-acetate (Sigma). The cells were washed by centrifugation (200×g for 5 min) and resuspended in 100 ml fresh medium. After 24-48 hours, the cells were harvested, centrifuged, and resuspended in culture medium at 2 million cells/ml.
# Compounds were prepared as 10 mM stock solutions in DMSO and diluted in culture medium to yield a final DMSO concentration of 0.1% in the cell assay. LPS (E coli, 100 ng/ml final concentration) was then added at a volume of 0.02 ml. After 4 hour incubation at 37° C., the amount of TNF-α released in the culture medium was quantitated by ELISA. Inhibitory potency is expressed as IC50 (μM).
# In vitro whole cell assay for measuring the ability of the compounds to inhibit TNF production in human U937 cells stimulated with LPS are shown in the column identified as: […]
row,Structure (SMILES),U937 Cell % inhib @ conc. [% @ 1.0 uM]
1,Cc1ccc(C(=O)N[C@H](C)c2[nH]nc(-c3ccc(F)cc3)c2-c2ccncc2)cc1 [Example B-0494],30.0

# Same assay, conditions: @ 1.0 uM; TNF production, LPS-stimulated U937 cells
row,Structure (SMILES),U937 Cell % inhib @ conc. (uM) [% @ 1.0 uM]
1,Cc1noc(C)c1S(=O)(=O)NCCCc1[nH]nc(-c2ccc(F)cc2)c1-c1ccncc1 [Example B-1281],8.0

# Same assay, conditions: Homo sapiens, U-937, @ 1.0 uM; read-out: U937 Cell % inhib @ conc.
row,Structure (SMILES),inhibition at 1 µM [%]
1,O=C(NCc1[nH]nc(-c2ccc(F)cc2)c1-c1ccncc1)c1cccs1 [Example B-0193],6
2,O=S(=O)(NCc1[nH]nc(-c2ccc(F)cc2)c1-c1ccncc1)c1ccccc1Br [Example B-0234],68
3,O=S(=O)(NCc1[nH]nc(-c2ccc(F)cc2)c1-c1ccncc1)c1ccc(C(F)(F)F)cc1 [Example B-0237],60
4,Cc1ccccc1S(=O)(=O)NCc1[nH]nc(-c2ccc(F)cc2)c1-c1ccncc1 [Example B-0245],24
5,Cc1noc(C)c1C(=O)NCc1[nH]nc(-c2ccc(F)cc2)c1-c1ccncc1 [Example B-0304],28
6,C[C@@H](NC(=O)c1ccccn1)c1[nH]nc(-c2ccc(F)cc2)c1-c1ccncc1 [Example B-0379],24
7,C[C@@H](NS(=O)(=O)c1ccccc1)c1[nH]nc(-c2ccc(F)cc2)c1-c1ccncc1 [Example B-0386],54
8,C[C@@H](NS(=O)(=O)/C=C/c1ccccc1)c1[nH]nc(-c2ccc(F)cc2)c1-c1ccncc1 [Example B-0388],36
9,C[C@@H](NC(=O)N(C)c1ccccc1)c1[nH]nc(-c2ccc(F)cc2)c1-c1ccncc1 [Example B-0409],30
10,CCN(CC)C(=O)N[C@H](C)c1[nH]nc(-c2ccc(F)cc2)c1-c1ccncc1 [Example B-0420],49
11,COc1ccc(NC(=O)N[C@H](C)c2[nH]nc(-c3ccc(F)cc3)c2-c2ccncc2)c(OC)c1 [Example B-0422],40
12,C[C@@H](NS(=O)(=O)c1ccc(Br)cc1)c1[nH]nc(-c2ccc(F)cc2)c1-c1ccncc1 [Example B-0432],89
13,C[C@@H](NS(=O)(=O)c1ccc(Cl)cc1)c1[nH]nc(-c2ccc(F)cc2)c1-c1ccncc1 [Example B-0433],92
14,C[C@@H](NS(=O)(=O)c1ccc2ccccc2c1)c1[nH]nc(-c2ccc(F)cc2)c1-c1ccncc1 [Example B-0440],63
15,C[C@@H](NS(=O)(=O)Cc1ccccc1[N+](=O)[O-])c1[nH]nc(-c2ccc(F)cc2)c1-c1ccncc1 [Example B-0442],91
16,C[C@@H](NS(=O)(=O)c1cccc(Cl)c1Cl)c1[nH]nc(-c2ccc(F)cc2)c1-c1ccncc1 [Example B-0445],83
17,C[C@@H](NS(=O)(=O)c1ccccc1Br)c1[nH]nc(-c2ccc(F)cc2)c1-c1ccncc1 [Example B-0454],80
18,C[C@@H](NS(=O)(=O)c1cccc(Cl)c1)c1[nH]nc(-c2ccc(F)cc2)c1-c1ccncc1 [Example B-0462],97
19,C[C@@H](NS(=O)(=O)c1cc(Cl)cc(Cl)c1)c1[nH]nc(-c2ccc(F)cc2)c1-c1ccncc1 [Example B-0464],91
20,Cc1cccc(Cl)c1S(=O)(=O)N[C@H](C)c1[nH]nc(-c2ccc(F)cc2)c1-c1ccncc1 [Example B-0467],77
21,C[C@@H](NC(=O)c1cccc(C#N)c1)c1[nH]nc(-c2ccc(F)cc2)c1-c1ccncc1 [Example B-0499],37
22,C[C@@H](NC(=O)c1cccc(F)c1F)c1[nH]nc(-c2ccc(F)cc2)c1-c1ccncc1 [Example B-0518],64
23,C[C@@H](NC(=O)c1ccc(F)cc1F)c1[nH]nc(-c2ccc(F)cc2)c1-c1ccncc1 [Example B-0524],77
24,Cc1noc(C)c1C(=O)N[C@H](C)c1[nH]nc(-c2ccc(F)cc2)c1-c1ccncc1 [Example B-0529],73

# Same assay, conditions: Homo sapiens, U-937, LPS-stimulated U937 cells; read-out: U937 Cell Assay IC50
row,IC50 [nM],Structure (SMILES)
1,274,Cc1ccc(-c2[nH]nc(C)c2-c2ccncc2)cc1 [Example A-5]
2,301,"Cc1cccc(-c2n[nH]cc2-c2ccnc(C)c2)c1 [Example A-143, 2-methyl-4-[3-(3-methylphenyl)-1H-pyrazol-4-yl]pyridine]"

# Same assay, conditions: Homo sapiens, U-937, LPS-stimulated U937 cells; read-out: U937 IC50
row,IC50 [nM],Structure (SMILES)
1,920,"CN(C)CCn1cc(-c2ccnc(NCc3ccc(F)cc3)c2)c(-c2ccc(F)cc2)n1 [Example A-274, 4-[1-[2-(dimethylamino)ethyl]-3-(4-fluorophenyl)-1H-pyrazol-4-yl]-N-[(4-fluorophenyl)methyl]-2-pyridinamine]"
2,> 10000,"CN(C)CCn1cc(-c2ccnc(CCc3ccc(F)cc3)c2)c(-c2ccc(F)cc2)n1 [Example A-275, 3-(4-fluorophenyl)-4-[2-[2-(4-fluorophenyl)ethyl]-4-pyridinyl]-N,N-dimethyl-1H-pyrazole-1-ethanamine]"
3,6020,"OCCn1ncc(-c2ccnc(NCc3ccc(F)cc3)c2)c1-c1ccc(F)cc1 [Example A-290, 5-(4-fluorophenyl)-4-[2-[[(4-fluorophenyl)methyl]amino]-4-pyridinyl]-1H-pyrazole-1-ethanol]"

# Same assay, conditions: Homo sapiens, U-937, TNF production, LPS-stimulated human U937 cells; read-out: U937 Cell IC50
row,IC50 [nM],Structure (SMILES)
1,> 1000,O=C(NCc1[nH]nc(-c2ccc(F)cc2)c1-c1ccncc1)c1cccs1 [Example B-0208]
